The values below come from patent US6399614B1, “1-(N-phenylaminoalkyl)piperazine derivatives substituted at position 2 of the phenyl ring” (Recordati S.A. Chemical and Pharmaceutical Company, priority 1997, dated 2002).

The test system of test [1] is rhythmic bladder voiding contractions. In words: Volume-induced rhythmic bladder voiding contractions in anaesthetized rats. The class given is in vivo, rat. The note with it: for ED (10 min disappearance of contractions) / ED50: Rattus norvegicus, intravenous; for ED (10 min disappearance of contractions): extrapolated dose inducing 10 min of disappearance of the contractions, anaesthetized rats, read-out: ED10 min. How it is done:
Female Sprague Dawley rats weighing 225-275 g (Crl: CDo BR, Charles River Italia) were used. The animals were housed with free access to food and water and were maintained on a forced 12 h alternating light-dark cycle at 22-24° C. for at least one week, except during the experiment. The activity on the rhythmic bladder voiding contractions was evaluated according to the method of Dray (J. Pharmacol. Methods, 13:157, 1985), with some modifications as in Guarneri (Pharmacol. Res., 27:173, 1993). Briefly, rats were anesthetized by subcutaneous injection of 1.25 g/kg (5 ml/kg) urethane, after which the urinary bladder was catheterized via the urethra using PE 50 polyethylene tubing filled with physiological saline. The catheter was tied in place with a ligature around the external urethral orifice and was connected with conventional pressure transducers (Statham P23 ID/P23 XL). […] The bladder was then filled via the recording catheter by incremental volumes of warm (37° C.) saline until reflex bladder voiding contractions occurred (usually 0.8-1.5 ml). For intravenous (i.v.) injection of bioactive compounds, PE 50 polyethylene tubing filled with physiological saline was inserted into the jugular vein. From the cystometrogram, the number of contractions recorded 15 min before (basal values) and after treatment, as well as the mean amplitude of these contractions (mean height of the peaks in mmHg) was evaluated.
Since most compounds produced an effect that was relatively rapid in onset and led to a complete cessation of bladder contractions, bioactivity was conveniently estimated by measuring the duration of bladder quiescence (i.e., the duration of time during which no contractions occurred). The number of animals tested showing a reduction in the number of contractions >30% of that observed in the basal period was also recorded.
Also computed in this manner were extrapolated doses which induced a reduction of the number of contractions of greater than 30% in 50% of treated rats (ED50, frequency) by the method of Bliss (Bliss C. I., Quart. J. Pharm. Pharmacol. 11, 192-216, 1938). After the suppressive effects of drug injection wore off, the height of the contractile peaks was compared with the height of the peaks previously recorded after the control intravenous administration of vehicle. The potency of the tested compounds (ED50 value: the extrapolated doses inducing a 30% reduction of amplitude of the contractions in 50% of treated rats) was evaluated on a quantal basis by the method of Bliss (Bliss C. I., Quart. J. Pharm. Pharmacol. 11, 192-216, 1938).

Test [2] addresses T1, human 5-HT1A serotonergic receptor (Homo sapiens, UniProt P08908).
T1 construct: expressed in transfected cells; host or cells: HeLa
T1 sequence (P08908 1-422): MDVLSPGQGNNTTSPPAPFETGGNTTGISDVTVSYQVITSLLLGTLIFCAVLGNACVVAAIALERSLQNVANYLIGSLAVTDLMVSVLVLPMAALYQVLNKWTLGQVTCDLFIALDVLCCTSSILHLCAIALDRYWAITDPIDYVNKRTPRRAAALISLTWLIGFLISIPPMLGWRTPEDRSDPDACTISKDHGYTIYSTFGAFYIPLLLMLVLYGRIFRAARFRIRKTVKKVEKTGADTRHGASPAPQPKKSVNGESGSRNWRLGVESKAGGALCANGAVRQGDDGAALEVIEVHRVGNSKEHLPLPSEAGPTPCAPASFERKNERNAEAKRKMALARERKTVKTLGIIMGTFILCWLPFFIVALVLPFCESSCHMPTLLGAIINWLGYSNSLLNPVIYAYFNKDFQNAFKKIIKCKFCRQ
Kind of test: Radioreceptor binding, recombinant human 5-HT1A receptors ([3H]8-OH-DPAT, HeLa membranes). To be noted: recombinant human receptor, [3H]8-OH-DPAT; Ki from IC50 by Cheng & Prusoff; read-out: Binding affinity for the 5-HT1A receptor, Ki. How it is done:
Genomic clone G-21 coding for the human 5-HT1A serotonergic receptor is stably transfected in a human cell line (HeLa). HeLa cells were grown as monolayers in Dulbecco's modified Eagle's medium (DMEM), supplemented with 10% fetal calf serum and gentamicin ([…]), 5% CO2 at 37° C. Cells were detached from the growth flask at 95% confluence by a cell scraper and were lysed in ice-cold 5 mM Tris and 5 mM EDTA buffer (pH 7.4). Homogenates were centrifuged at 40000×g×20 min and pellets were resuspended in a small volume of ice-cold 5 mM Tris and 5 mM EDTA buffer (pH 7.4) and immediately frozen and stored at −70° C. until use. On the day of experiment, cell membranes were resuspended in binding buffer: 50 mM Tris HCl (pH 7.4), 2.5 mM MgCl2, 10 μM pargiline (Fargin et al., Nature 335, 358-360, 1988). Membranes were incubated in a final volume of 1 ml for 30 min at 30° C. with 0.2-1 nM [3H]8-OH-DPAT, in absence or presence of competing drugs; non-specific binding was determined in the presence of 10 μM 5-HT. The incubation was stopped by addition of ice-cold Tris-HCl buffer and rapid filtration through 0.2% polyethyleneimine pretreated Whatman GF/B or Schleicher & Schuell GF52 filters.
The inhibition of specific binding of the radioligands by the tested drugs was analyzed to estimate the IC50 value by using the non-linear curve-fitting program Allfit (De Lean et al., Am. J. Physiol. 235, E97-E102, 1978). The IC50 value was converted to an affinity constant (Ki) by the equation of Cheng & Prusoff (Cheng, Y. C.; Prusoff, W. H. Biochem. Pharmacol. 22, 3099-3108, 1973).

In test [3] the test system is urinary bladder. Kind of test: Cystometric parameters (cystometrogram) in conscious rats. The class given is in vivo, rat. The note with it: for BVC after treatment / MP after treatment: mean ± S.E.; for change in vivo at 0.1 mg/kg / change in vivo at 0.3 mg/kg / change in vivo at 1 mg/kg: Rattus norvegicus, iv, 0.25 h, after vs before; for change in vivo at 0.1 mg/kg: i.v. 100 μg/kg; for change in vivo at 0.3 mg/kg: i.v. 300 μg/kg; for change in vivo at 1 mg/kg: i.v. 1000 μg/kg. How it is done: Male Sprague Dawley rats (Crl: CDo BR) weighing 250-350 g were used. The animals were housed with free access to food and water and maintained on a forced 12 h alternating light-dark cycle at 22-24° C. for at least one week, except during performance of the experiment. To quantify urodynamic parameters in conscious rats, cystometrographic studies were performed using procedures previously described (Guarneri et al., Pharmacol. Res., 24:175, 1991). […] An approximately 10 mm long midline incision was made in the shaved and cleaned abdominal wall. The urinary bladder was gently freed from adhering tissues, emptied, and then cannulated, via an incision at the dome, with a polyethylene cannula (Portex PP30), which was permanently sutured with silk thread. The cannula was exteriorized through a subcutaneous tunnel in the retroscapular area, where it was connected with a plastic adapter to avoid the risk of removal by the animal. For intravenous (i.v.) injection of test compounds, a PE 50 polyethylene tubing filled with physiological saline was inserted into the jugular vein and exteriorized in the retroscapular area. The rats were utilized exclusively one day after implantation. On the day of the experiment, the rats were placed in Bollman's cages, after a stabilization period of 20 min, and the free tip of the bladder catheter was connected through a T-shaped tube to a pressure transducer (Bentley T 800/Marb P 82) and to a peristaltic pump (Gilson minipuls 2) for a continuous infusion, at the constant rate of 0.1 ml/min, of saline solution into the urinary bladder. The intraluminal pressure signal during infusion was continuously recorded on a polygraph (Battaglia Rangoni KO 380 with ADCl/T amplifier).
Two urodynamic parameters were evaluated: bladder volume capacity (BVC) and micturition pressure (MP). BVC (in ml) is defined as the minimum volume infused after which detrusor contraction (followed by micturition) occurs. MP (in mm Hg) is defined as the maximal intravesical pressure induced by the contraction of detrusor during micturition. Basal BVC and MP values were calculated as the means of the first two recorded cystometrograms. At this point in the assay, the infusion was interrupted and the test compounds were administered. Fifteen minutes after intravenous administration two additional cystometrograms were recorded in each animal and the mean values of the two cystometrographic parameters were calculated. The statistical significance of the differences in urodynamic parameter values was evaluated by Student's t test for paired data.

Where [4] appears, read: extrapolated dose inducing a reduction of the number of contractions >30% in 50% of treated rats, read-out: ED50 (frequency).

Each structure is given as a SMILES string. Like-named read-outs stand apart in the source and are kept apart here.

Consider `COc1ccccc1N1CCN(CCNc2ccccc2C#N)CC1` [Example 10, 1-[N-(2-cyanophenyl)-2-aminoethyl]-4-(2-methoxyphenyl)piperazine], for which the ED (10 min disappearance of contractions) in test [1] is 0.122 mg/kg. Also, the median effective dose (ED50) in test [1] (setting [4]) is 0.028 mg/kg. In addition, the Ki in test [2] amounted to 17.2 nM.

In the case of `O=C(C1CCCCC1)N(CCN1CCN(c2cccc3[nH]ccc23)CC1)c1ccccc1OCC(F)(F)F` [Example 69, 1-[N-cyclohexylcarbonyl-N-[2-(2,2,2-trifluoroethoxyphenyl)]-2-aminoethyl]-4-(4-indolyl)piperazine], in test [1], the ED (10 min disappearance of contractions) is 0.06 mg/kg. For the same compound, the 50% effective dose (ED50) in test [1] (setting [4]) was 0.014 mg/kg. The Ki in test [2] is 0.32 nM.

With `CCN(CC)CC#CCOC(=O)C(O)(c1ccccc1)C1CCCCC1` (stereo not drawn) [Oxybutinin, oxybutynin, reference compound], the BVC after treatment in test [3] (15 min after i.v. 100 μg/kg) stood at 0.89 ± 0.18 mL; in test [3] (15 min after i.v. 300 μg/kg) it was 0.83 ± 0.12 mL; in test [3] (15 min after i.v. 1000 μg/kg), 1.00 ± 0.18 mL. In addition, the MP after treatment in test [3] (15 min after i.v. 100 μg/kg) is 77.4 ± 10.3 mmHg; in test [3] (15 min after i.v. 300 μg/kg), 50.5 ± 6.3 mmHg. The change in vivo at 0.1 mg/kg in test [3] (read-out: BVC % of change) was 8.5%; in test [3] (read-out: MP % of change), -18.7%. The change in vivo at 0.3 mg/kg in test [3] (read-out: MP % of change) is -38.6%. For the same compound, in test [3] (conscious rats, i.v.), the “effect on MP (in words)” value was “markedly and dose-dependently decreased MP”. Besides, the ED (10 min disappearance of contractions) in test [1] was 7.77 mg/kg. For the same compound, the 50% effective dose (ED50) is 0.24 mg/kg in test [1] (extrapolated dose inducing 30% reduction of amplitude of the contractions in 50% of treated rats, n.a. = not active, no significant reduction of the height of peaks, read-out: ED50 (amplitude)) and greater than 10 mg/kg in test [1] (setting [4]).

In test [3] (15 min after i.v. 300 μg/kg), `COc1ccccc1N1CCN(CCN(C(=O)C2CCCCC2)c2ccccc2OCC(F)(F)F)CC1` [Example 42, 1-[N-[2-(2,2,2-trifluoroethoxy)phenyl]-N-cyclohexylcarbonyl-2-aminoethyl]-4-(2-methoxyphenyl)piperazine] yielded a BVC after treatment of 0.89 ± 0.15 mL and an MP after treatment of 66.5 ± 9.9 mmHg. In test [3] (15 min after i.v. 1000 μg/kg), this compound showed a BVC after treatment of 1.00 ± 0.16 mL and an MP after treatment of 70.3 ± 7.8 mmHg. In addition, in test [3] (read-out: BVC % of change), the change in vivo at 0.3 mg/kg was 26.4% and the change in vivo at 1 mg/kg was 41.7%. In test [3] (read-out: MP % of change), the change in vivo at 0.3 mg/kg is -20% and the change in vivo at 1 mg/kg is -9.2%. The ED (10 min disappearance of contractions) in test [1] was 0.033 mg/kg. For the same compound, the ED50 in test [1] (setting [4]) was 0.018 mg/kg.

As to `COc1ccccc1N1CCN(CCNc2ccc([N+](=O)[O-])cc2)CC1` [Compound E, 1-[N-(4-nitrophenyl)-2-aminoethyl]-4-(2-methoxyphenyl)piperazine, reference compound], the ED (10 min disappearance of contractions) in test [1] was greater than 1 mg/kg. Moreover, the ED50 in test [1] (setting [4]) was greater than 1 mg/kg.

Take `COc1ccccc1N1CCN(CCN(C(=O)C2CCCCC2)c2ccc([N+](=O)[O-])cc2)CC1` [Compound C, 1-[N-(4-nitrophenyl)-N-cyclohexylcarbonyl-2-aminoethyl]-4-(2-methoxyphenyl)piperazine, reference compound]: the ED (10 min disappearance of contractions) in test [1] is greater than 1 mg/kg. Also, the ED50 in test [1] (setting [4]) was greater than 1 mg/kg. The “pharmacological activity on bladder voiding contractions (in words)” value in test [1] (nitro group at position 3 or 4 of the aniline ring) was “pharmacological activity was abolished”.

For `Cc1c(-c2ccccc2)oc2c(C(=O)OCCN3CCCCC3)cccc2c1=O` [Flavoxate, flavoxate, reference compound], in test [3] (15 min after i.v. 300 μg/kg), the BVC after treatment was determined as 0.87 ± 0.11 mL and the MP after treatment was found to be 95.0 ± 10.9 mmHg. Besides, in test [3] (15 min after i.v. 1000 μg/kg), the BVC after treatment is 1.11 ± 0.16 mL and the MP after treatment worked out at 80.1 ± 11.1 mmHg. Besides, in test [3] (read-out: BVC % of change), the change in vivo at 0.3 mg/kg stood at 14.5% and the change in vivo at 1 mg/kg stood at 26.1%. Moreover, in test [3] (read-out: MP % of change), the change in vivo at 0.3 mg/kg amounted to 6.5% and the change in vivo at 1 mg/kg was -11.4%. In test [3] (conscious rats, i.v.), the “i.v. dose at which a significant increase in BVC was observed” value is 1.0 mg/kg. Besides, in test [1], the ED (10 min disappearance of contractions) is greater than 10 mg/kg.

In the case of `COc1ccccc1N1CCN(CCN(C(=O)C2CCCCC2)c2ccccc2C#N)CC1.Cl` [Example 43, 1-[N-(2-cyanophenyl)-N-cyclohexylcarbonyl-2-aminoethyl]-4-(2-methoxyphenyl)piperazine Hydrochloride], the ED (10 min disappearance of contractions) in test [1] is 0.052 mg/kg. Also, the ED50 in test [1] (setting [4]) is 0.004 mg/kg.

One may read the ED50 as the dose that gives a 50% effect, or the effect in half of the subjects. Broadly, the Ki is the dissociation constant of the complex between target and ligand, obtained from inhibition or displacement.
